The source of these data is US8604040B2 (priority 2010, dated 2013).

Where two headings read alike, the source gives them in different places. Marks after values point to notes of the source that are not given here.

What is called log P is the decadic logarithm of the partition coefficient of the neutral form, usually between octanol and water. Low readings indicate a more hydrophilic compound, high ones a more lipophilic compound.

Data set [1] has as its system Phytophthora infestans. The data set is classed as in vivo. The settings on record: protective, young tomato plants, active ingredient concentration 500 ppm, evaluation 7 days after inoculation.
Data set [2] can be described thus: log P by HPLC (EEC Directive 79/831 Annex V.A8). Type of data set: physicochemical.
For data set [3], the system named is Plasmopara viticola. Put plainly: Plasmopara test (grapevine) / protective. The settings on record: young grapevine plants, active ingredient concentration 100 ppm, evaluation 6 days after inoculation. Type of data set: in vivo. The procedure: Plasmopara Test (Grapevine)/Protective
Solvent: 24.5 parts by weight of acetone
• 24.5 parts by weight of dimethylacetamide Emulsifier: 1 part by weight of alkylaryl polyglycol ether
To prepare an appropriate active ingredient preparation, 1 part by weight of active ingredient is mixed with the stated amounts of solvent and emulsifier, and the concentrate is diluted with water to the desired concentration.
To test for protective efficacy, young plants are sprayed with the active ingredient preparation at the stated application rate. After the spray coating has dried on, the plants are inoculated with an aqueous spore suspension of Plasmopara viticola and then remain in an incubation cabin at approx. 20° C. and 100% relative atmospheric humidity for 1 day. Subsequently, the plants are placed in a greenhouse at approx. 21° C. and approx. 90% air humidity for 4 days. The plants are then moistened and placed into an incubation cabin for 1 day.
Evaluation follows 6 days after the inoculation. 0% means an efficacy which corresponds to that of the control, whereas an efficacy of 100% means that no infection is observed.

Setting [4] is: [b] LC-MS, acidic range, pH 2.7, 0.1% aqueous formic acid and acetonitrile.
The mark [5] stands for this setting: [c] LC-MS, neutral range, pH 7.8, 0.001 molar aqueous ammonium hydrogencarbonate and acetonitrile.
[6] abbreviates: [a] HPLC, acidic range, pH 2.3, 0.1% aqueous phosphoric acid and acetonitrile.

Consider `Cc1cc(C(F)(F)F)nn1CC(=O)N1CCN(c2cccc(C(=O)OCc3ccccc3F)n2)CC1` [Example 73], for which, in data set [1], the efficacy is 71%. The log partition coefficient (log P) was 3.58 in data set [2] (setting [4]) and 3.6 in data set [2] (setting [5]).

As for `Cc1cc(C(F)(F)F)nn1CC(=O)N1CCN(c2cccc(C(=O)Oc3cccc4ccccc34)n2)CC1` [Example 75], the efficacy in data set [1] was 71%. In addition, the lipophilicity (log P) in data set [2] (setting [4]) is 3.99; in data set [2] (setting [5]), 4.

On to `O=C(OC1CCCc2ccccc21)c1cccc(N2CCN(C(=O)Cn3nc(C(F)F)cc3C(F)F)CC2)n1` (centres unmarked) [Example 117, 1,2,3,4-Tetrahydronaphthalen-1-yl 6-(4-{[3,5-bis(difluoromethyl)-1H-pyrazol-1-yl]-acetyl}piperazin-1-yl)pyridine-2-carboxylate], for which the efficacy in data set [3] and in data set [1] was 93% in each case. Further, the chromatographic logP in data set [2] (HPLC (LC-MS), [c] LC-MS, neutral range, pH 7.8, 0.001 molar aqueous ammonium hydrogencarbonate and acetonitrile, read-out: log P) is 4.07; in data set [2] (HPLC, pH 2.7, given in the preparation examples, read-out: logP (pH2.7)), 4.02; in data set [2] ([a] HPLC, acidic range, pH 2.3, 0.1% aqueous phosphoric acid and acetonitrile, read-out: log P) it was 4.02.

`Cc1cc(C(F)(F)F)nn1CC(=O)N1CCN(c2cccc(C(=O)OCc3c(F)cc(F)cc3F)n2)CC1` [Example 118] had an efficacy in data set [1] of 93%. The log partition coefficient (log P) in data set [2] (setting [4]) stood at 3.68; in data set [2] (setting [5]), 3.71.

`O=C(Sc1cccc2ccccc12)c1cccc(N2CCN(C(=O)Cn3nc(C(F)F)cc3C(F)F)CC2)n1` [Example 120]: the efficacy in data set [1] came out at 93%. The “log P” value in data set [2] (setting [6]) is 4.25; in data set [2] (setting [5]), 4.28.

Compound `O=C(Sc1cccs1)c1cccc(C2CCN(C(=O)Cn3nc(C(F)F)cc3C(F)F)CC2)n1` [Example 123] came in with an efficacy in data set [1] of 93%. The “log P” value in data set [2] (setting [6]) stood at 3.76; in data set [2] (setting [5]) it was 3.77.

`O=C(OCc1ccccc1F)c1cccc(N2CCN(C(=O)Cn3nc(C(F)F)cc3C(F)F)CC2)n1` [Example 137] displayed an efficacy in data set [1] of 93%. Also, the “log P” value was 3.47 in data set [2] (setting [6]) and 3.49 in data set [2] (setting [5]).

For `O=C(OCc1c(F)cccc1F)c1cccc(N2CCN(C(=O)Cn3nc(C(F)F)cc3C(F)F)CC2)n1` [Example 138], the efficacy in data set [1] amounted to 93%. The “log P” value in data set [2] (setting [6]) and in data set [2] (setting [5]) was 3.43^[a]; 3.43^[c] each time.

Consider `O=C(OC1CCCCC1)c1cccc(N2CCN(C(=O)Cn3nc(C(F)F)cc3C(F)F)CC2)n1` [Example 140], for which the efficacy is given as 71% in data set [3] and 93% in data set [1]. The figures for the “log P” value in data set [2] (setting [6]) and in data set [2] (setting [5]) were 3.83 and 3.86, respectively.

`O=C(Oc1cccc2ccccc12)c1cccc(N2CCN(C(=O)Cn3nc(C(F)F)cc3C(F)F)CC2)n1` [Example 141] had an efficacy in data set [1] of 71%. In data set [2] (setting [5]), the “log P” value is 3.88^[c].

Regarding `O=C(OC1C=CCCC1)c1cccc(N2CCN(C(=O)Cn3nc(C(F)F)cc3C(F)F)CC2)n1` (centres unmarked) [Example 142], in data set [1], the efficacy was 83%. Further, the “log P” value in data set [2] (setting [6]) is reported as 3.56; in data set [2] (setting [5]) it was 3.6.

On to `CN(C(=O)c1cccc(N2CCN(C(=O)Cn3nc(C(F)F)cc3C(F)F)CC2)n1)C1CCCc2ccccc21` (centres unmarked) [Example 143], for which, in data set [1], the efficacy worked out at 71%. Further, the “log P” value worked out at 3.42 in data set [2] (setting [6]) and 3.45 in data set [2] (setting [5]).
